{
  "source": "patent US6607727B1",
  "about": "“Peptides for inducing cytotoxic T lymphocyte responses to hepatitus B virus” (priority 1991, dated 2003)",
  "key": {"[1]": {"tested_on": "CTL clone 3D11 (HLA A31 restricted)", "type": "cell-based, human"}, "[2]": {"tested_on": "CTL clone 2D7 (HLA Aw68 restricted)", "type": "cell-based, human"}, "[3]": {"tested_on": "CTL clones 3D11 and 2D7", "settings": "peptide 10-3 μM to 1μM"}, "[4]": {"tested_on": "PBMCs from a patient with acute hepatitis", "assay": "CTL response to HBx peptide in PBMCs of a patient with acute hepatitis, HLA-A2 matched peptide-pulsed targets", "type": "cell-based, human"}, "[5]": {"tested_on": "PBMCs from a patient with acute hepatitis", "assay": "CTL response to HBenv 348-357 peptide in PBMCs of a patient with acute hepatitis, HLA-A2 matched targets", "type": "cell-based, human", "procedure": "The CTL induced by the HBenv 348-357 peptide were identified in PBMCs from a patient with acute hepatitis according to the procedure set forth in Example XV, except that the PMBCs were stimulated with individual peptide rather than peptide mixtures. The resulting CTL line was then tested for the ability to kill HLA-A2 matched target cells that were pulsed with the peptide or that expressed endogenous envelope antigens of ayw or adw subtypes."}, "[6]": {"tested_on": "HBpol455-463 specific CTL", "type": "cell-based, human"}},
  "data": [
    {"substance": "STLPETTVVRR [141-151]", "values": [
      {"measurement": "Clone 3D11 Restriction Element A31 Percent 51CR Release", "setting": "[1]", "result": 69, "unit": "%"},
      {"measurement": "Clone 2D7 Restriction Element Aw68 Percent 51CR Release", "setting": "[2]", "result": 66, "unit": "%"},
      {"measurement": "efficiency of target lysis in dose titration", "setting": "[3]", "result": "minimal optimally recognized epitope recognized by both of the CTL clones"}
    ]},
    {"substance": "EIRLKVFVL", "values": [
      {"measurement": "induction of specific CTL response by peptide", "setting": "[4]", "result": "not able to induce a specific CTL response"},
      {"measurement": "recognition by CTL induced with the analog peptide AIRLKVFVL", "setting": "[4]", "result": "also recognized the peptide with the wild type sequence"}
    ]},
    {"substance": "Gly-Leu-Ser-Pro-Thr-Val-Trp-Leu-Ser-Val (GLSPTVWLSV; printed: Gly-Leu-Ser-Pro-Thr-Val-Trp-Leu-Ser-Val) [HBenv peptide 348-357]", "values": [
      {"measurement": "CTL recognition of envelope antigen of the adw subtype", "setting": "[5]", "result": "did not recognize the adw subtype"},
      {"measurement": "CTL response to target cells pulsed with peptide", "setting": "[5]; effector:target cell ratio of 3:1", "result": "responded to target cells"}
    ]},
    {"substance": "AIRLKVFVL [HBx peptide 126-134 with the amino terminal residue substituted with alanine]", "values": [
      {"measurement": "induction of specific CTL response by peptide", "setting": "[4]", "result": "CTL were stimulated"}
    ]},
    {"substance": "GVSRYVARL [variant of HBpol455-463 (ayw isolate)]", "values": [
      {"measurement": "recognition by GLSRYVARL (HBpol455-463) induced CTL", "setting": "[6]", "result": "poorly recognized"}
    ]}
  ]
}
